≈ marks a conversion by molar mass, not a printed value. Like-named read-outs stand apart in the source and are kept apart here.
Columns and labels:
β-galactosidase = conditions: cited from earlier work
several Vibrio strains = assay: Cebulantin bioactivity screen (IC50); format: cell-based; conditions: range over several Vibrio strains
[1] = tested on: Gram-positive bacteria tested; assay: Cebulantin bioactivity screen; format: cell-based
A. baumannii ATCC 19606 = assay: Minimal inhibitory concentration (CLSI methods); format: cell-based, Acinetobacter baumannii
Experimental: (§1) Antibacterial assays with taylorflavin B (8) were carried out by Micromyx, LLC in accordance with methods from the Clinical and Laboratory Standards Institute. Minimal inhibitory concentrations were determined with the following strains: E. coli ATCC 25922, A. baumannii ATCC 19606, V. cholerae BAA-2163, N. gonorrhoeae ATCC 49226, P. aeruginosa ATCC 27853, K. pneumoniae MMX 214. S. aureus ATCC 29213, S. aureus MMX 2011, S. pneumoniae ATCC 49619, S. pyogenes MMX 6253, S. agalactiae MMX 6189, E. faecalis ATCC 29212, E. faecalis MMX 486, B. subtilis ATCC 6633, C. difficile ATCC 700057, B. fragilis ATCC 25285. Assays with taylorflavin A (7) were carried in-house according to the same protocols.

V. cholerae BAA-2163 = assay: Minimal inhibitory concentration (CLSI methods); format: cell-based, Vibrio cholerae
Experimental: as §1

E. coli = assay: In-house bioactivity assays of induced peaks and purified taylorflavins; format: cell-based
[2] = tested on: collection of Gram-positive bacteria; assay: Antibacterial assays, Gram-positive panel; format: cell-based
Experimental: as §1

P. aeruginosa ATCC 27853 = assay: Minimal inhibitory concentration (CLSI methods); format: cell-based
Experimental: as §1

E. faecalis MMX 486 = assay: Minimal inhibitory concentration (CLSI methods); format: cell-based; conditions: E. faecalis VRE
Experimental: as §1

S. aureus ATCC 29213 = assay: Minimal inhibitory concentration (CLSI methods); format: cell-based
Experimental: as §1

S. pneumoniae ATCC 49619 = assay: Minimal inhibitory concentration (CLSI methods); format: cell-based; conditions: S. pneumoniae PSPP
Experimental: as §1

E. coli ATCC 25922 = assay: Minimal inhibitory concentration (CLSI methods); format: cell-based
Experimental: as §1

S. agalactiae MMX 6189 = assay: Minimal inhibitory concentration (CLSI methods); format: cell-based
Experimental: as §1

B. fragilis ATCC 25285 = assay: Minimal inhibitory concentration (CLSI methods); format: cell-based
Experimental: as §1

K. pneumoniae MMX 214 = assay: Minimal inhibitory concentration (CLSI methods); format: cell-based
Experimental: as §1

C. difficile ATCC 700057 = assay: Minimal inhibitory concentration (CLSI methods); format: cell-based
Experimental: as §1

S. pyogenes MMX 6253 = assay: Minimal inhibitory concentration (CLSI methods); format: cell-based
Experimental: as §1

B. subtilis ATCC 6633 = assay: Minimal inhibitory concentration (CLSI methods); format: cell-based
Experimental: as §1

S. aureus MMX 2011 = assay: Minimal inhibitory concentration (CLSI methods); format: cell-based; conditions: S. aureus MRSA
Experimental: as §1

[3] = tested on: N. gonorrhoeae ATCC 49226; assay: Minimal inhibitory concentration (CLSI methods); format: cell-based
Experimental: as §1

E. faecalis ATCC 29212 = assay: Minimal inhibitory concentration (CLSI methods); format: cell-based; conditions: E. faecalis VSE
Experimental: as §1

S. hiroshimensis A18 = assay: Validation of elicitor: disc diffusion assay of culture extracts on E. coli ZSR638; format: cell-based, Streptomyces hiroshimensis; conditions: S. hiroshimensis culture induced by 33 μM atenolol; uninduced control none
Experimental: Seed cultures of S. hiroshimensis A18 were prepared as described for the HiTES screen above. […] A control flask was prepared containing the same volume of DMSO, rather than atenolol. The culture was incubated at 30° C./200 rpm. […] The organic phases were combined, divided in two, and dried in vacuo.
For the disc diffusion assays, the dried control and atenolol-treated culture extracts were dissolved in 100 μL of DMSO each. Filter paper discs were infused with 30 μL of each sample, allowed to dry, and then placed on a soft LB agar (1% agarose) plate inoculated with E. coli ZSR638 at a concentration of 2×10^6 cells/mL. The agar plate was incubated at 37° C. for 10 h and then inspected visually.

For `OCc1cc2c([nH]c3ccccc32)c(C(O)CO)n1` (centres unmarked) [pyridindolol], the “inhibitory activity against β-galactosidase” value (β-galactosidase) is given as “inhibitory activity”.

Work on `C/C=C1\NC(=O)CNC(=O)[C@H](Cc2ccccc2)NC(=O)[C@H](NC(=O)[C@@H](NC(=O)[C@@H]2CCCN2C(=O)CN)[C@@H](C)CC)[C@H](C)SC[C@@H]2NC(=O)[C@H](NC1=O)[C@H](C)SC[C@@H](C(=O)N1CCC[C@H]1C(=O)N[C@@H]1CSC[C@@H](C(=O)O)NC(=O)[C@H](CO)NC(=O)[C@H](C(C)C)NC(=O)/C(=C/C)NC(=O)[C@H](CC(N)=O)NC(=O)[C@H](C)NC1=O)NC(=O)[C@@H]1C[C@@H](O)CN1C(=O)/C(=C/C)NC(=O)CNC(=O)[C@H](Cc1c[nH]c3ccccc13)NC2=O` [cebulantin] yielded an IC50 (E. coli (ΔlptD)) of 9.7 µM, an IC50 (several Vibrio strains) of 8.8 to 29.1 µM and an IC50 (V. cholerae) of 14.1 ± 2.4 µM. For the same compound, the IC50 (P. aeruginose) was 47 ± 11.4 µM, the IC50 (V. ordahi) was 27 ± 5.4 µM and the growth-inhibitory activity [1] was “no growth-inhibitory activity”. For the same compound, the IC50 (S. aureus) was greater than 100 µM, the IC50 (B. subtilis) was greater than 100 µM and the IC50 (V. alginolyticus) was 24.5 ± 3.2 µM. For the same compound, the IC50 (V. anguillarum) was 29.1 ± 8.2 µM and the IC50 (V. parahaemolyticus) was 8.8 ± 2.1 µM.

In the case of `Cn1nc2c(nc1=O)c(=O)n(C)c(=O)n2C` [Taylorflavin B, 2-methylfervenulone], the “minimal inhibitory concentration (MIC)” value (A. baumannii ATCC 19606) is reported as 16 mg/L (≈ 71.7 µM), the “minimal inhibitory concentration (MIC)” value (V. cholerae BAA-2163) is reported as 16 mg/L (≈ 71.7 µM) and the “antibiotic activity / inhibition of E. coli growth” value (E. coli) is reported as “more potent inhibitor”. For the same compound, the “antibiotic activity / inhibition of E. coli growth” value (E. coli; listed as 8) was “antibiotic activity”, the “growth inhibition of Gram-positive bacteria” value [2] was “did not inhibit the growth” and the “minimal inhibitory concentration (MIC)” value (P. aeruginosa ATCC 27853) was greater than 64 mg/L. For the same compound, the “minimal inhibitory concentration (MIC)” value (E. faecalis MMX 486) was 64 mg/L (≈ 287 µM), the “minimal inhibitory concentration (MIC)” value (S. aureus ATCC 29213) was 64 mg/L (≈ 287 µM) and the “minimal inhibitory concentration (MIC)” value (S. pneumoniae ATCC 49619) was 32 mg/L (≈ 143 µM). For the same compound, the “minimal inhibitory concentration (MIC)” value (E. coli ATCC 25922) was 16 mg/L (≈ 71.7 µM), the “minimal inhibitory concentration (MIC)” value (S. agalactiae MMX 6189) was 32 mg/L (≈ 143 µM) and the “minimal inhibitory concentration (MIC)” value (B. fragilis ATCC 25285) was greater than 64 mg/L. For the same compound, the “minimal inhibitory concentration (MIC)” value (K. pneumoniae MMX 214) was greater than 64 mg/L, the “minimal inhibitory concentration (MIC)” value (C. difficile ATCC 700057) was greater than 64 mg/L and the “minimal inhibitory concentration (MIC)” value (S. pyogenes MMX 6253) was 32 mg/L (≈ 143 µM). The “minimal inhibitory concentration (MIC)” value (B. subtilis ATCC 6633) was 64 mg/L (≈ 287 µM), the “minimal inhibitory concentration (MIC)” value (S. aureus MMX 2011) was 64 mg/L (≈ 287 µM) and the “minimal inhibitory concentration (MIC)” value [3] was 4 mg/L (≈ 17.9 µM). For the same compound, the “minimal inhibitory concentration (MIC)” value (E. faecalis ATCC 29212) was greater than 64 mg/L.

For `CC(C)NCC(O)COc1ccc(CC(N)=O)cc1` (centres unmarked) [atenolol], the “zone of inhibition on E. coli agar plates” value (S. hiroshimensis A18) was “clear zone of inhibition”.

From US12436145B2, “Cryptic antibiotics and methods for detecting bioactive cryptic metabolites” (THE TRUSTEES OF PRINCETON UNIVERSITY, priority 2019, dated 2025)
